# Tested on: CAL-51
# Assay: normalised response (% of control), CellTox Green; higher = less cell death (100 = DMSO, 0 = benzethonium chloride kill control)
# Details: incubation time: 72 h
# Summary of the method: (§1)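 Normalised signals at single concentrations make up the values. They come from breast cancer cell lines seeded (20 µl suspension) into 384-well plates with compound at 5 concentrations in 10-fold steps over a compound-specific 10,000-fold range, incubated 72 h, and read for CellTox Green fluorescence then CellTiter-Glo luminescence. Each plate was normalised to 0.1 % DMSO (100) and a positive kill control (0).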
row,Compound,normalised response [%]
1,O=C(Nc1c[nH]nc1-c1nc2ccc(CN3CCOCC3)cc2[nH]1)NC1CC1 [AT9283] (100 nM),71.7
2,CC(=O)OC[C@H]1O[C@@H]([S-])[C@H](OC(C)=O)[C@@H](OC(C)=O)[C@@H]1OC(C)=O.CCP(CC)CC.[Au+] [Auranofin] (250 nM),80.4
3,O=S(=O)(c1cccc2cnccc12)N1CCCNCC1 [Fasudil] (5000 nM),110
4,Cc1cccc(-c2nn3c(c2-c2ccnc4ccc(C(N)=O)cc24)CCC3)n1 [Galunisertib] (100 nM),112
5,O=C(NC[C@H](O)CO)c1ccncc1Nc1ccc(I)cc1F [Pimasertib] (1000 nM),93.7
6,Cn1cc(CNCC2CCN(c3ncc(C(=O)NO)cn3)CC2)c2ccccc21 [Quisinostat] (100 nM),58.5

# Tested on: MDA-MB-231
# Assay: as above
# Details: incubation time: 72 h
# Summary of the method: as §1
row,Compound,normalised response [%]
1,CC/C(=C(\c1ccc(O)cc1)c1ccc(OCCN(C)C)cc1)c1ccccc1 [4-hydroxytamoxifen] (1000 nM),108
2,O=C(Nc1c[nH]nc1-c1nc2ccc(CN3CCOCC3)cc2[nH]1)NC1CC1 [AT9283] (100 nM),14.5
3,CC(=O)OC[C@H]1O[C@@H]([S-])[C@H](OC(C)=O)[C@@H](OC(C)=O)[C@@H]1OC(C)=O.CCP(CC)CC.[Au+] [Auranofin] (250 nM),125
4,O=S(=O)(c1cccc2cnccc12)N1CCCNCC1 [Fasudil] (5000 nM),97.6
5,Cc1cccc(-c2nn3c(c2-c2ccnc4ccc(C(N)=O)cc24)CCC3)n1 [Galunisertib] (100 nM),120
6,O=C(NC[C@H](O)CO)c1ccncc1Nc1ccc(I)cc1F [Pimasertib] (1000 nM),63.2
7,Cn1cc(CNCC2CCN(c3ncc(C(=O)NO)cn3)CC2)c2ccccc21 [Quisinostat] (100 nM),29.6

# Tested on: MDA-MB-453
# Assay: as above
# Details: incubation time: 72 h
# Summary of the method: as §1
row,Compound,normalised response [%]
1,CC/C(=C(\c1ccc(O)cc1)c1ccc(OCCN(C)C)cc1)c1ccccc1 [4-hydroxytamoxifen] (1000 nM),111
2,O=C(Nc1c[nH]nc1-c1nc2ccc(CN3CCOCC3)cc2[nH]1)NC1CC1 [AT9283] (100 nM),100
3,CC(=O)OC[C@H]1O[C@@H]([S-])[C@H](OC(C)=O)[C@@H](OC(C)=O)[C@@H]1OC(C)=O.CCP(CC)CC.[Au+] [Auranofin] (250 nM),105
4,O=S(=O)(c1cccc2cnccc12)N1CCCNCC1 [Fasudil] (5000 nM),100
5,Cc1cccc(-c2nn3c(c2-c2ccnc4ccc(C(N)=O)cc24)CCC3)n1 [Galunisertib] (100 nM),114
6,O=C(NC[C@H](O)CO)c1ccncc1Nc1ccc(I)cc1F [Pimasertib] (1000 nM),107
7,Cn1cc(CNCC2CCN(c3ncc(C(=O)NO)cn3)CC2)c2ccccc21 [Quisinostat] (100 nM),89

# Tested on: Hs578T
# Assay: as above
# Details: incubation time: 72 h
# Summary of the method: as §1
row,Compound,normalised response [%]
1,CC/C(=C(\c1ccc(O)cc1)c1ccc(OCCN(C)C)cc1)c1ccccc1 [4-hydroxytamoxifen] (1000 nM),97.2
2,O=C(Nc1c[nH]nc1-c1nc2ccc(CN3CCOCC3)cc2[nH]1)NC1CC1 [AT9283] (100 nM),94.9
3,CC(=O)OC[C@H]1O[C@@H]([S-])[C@H](OC(C)=O)[C@@H](OC(C)=O)[C@@H]1OC(C)=O.CCP(CC)CC.[Au+] [Auranofin] (250 nM),103
4,O=S(=O)(c1cccc2cnccc12)N1CCCNCC1 [Fasudil] (5000 nM),66
5,Cc1cccc(-c2nn3c(c2-c2ccnc4ccc(C(N)=O)cc24)CCC3)n1 [Galunisertib] (100 nM),87.6
6,O=C(NC[C@H](O)CO)c1ccncc1Nc1ccc(I)cc1F [Pimasertib] (1000 nM),103
7,Cn1cc(CNCC2CCN(c3ncc(C(=O)NO)cn3)CC2)c2ccccc21 [Quisinostat] (100 nM),38.8

# Tested on: MDA-MB-436
# Assay: as above
# Details: incubation time: 72 h
# Summary of the method: as §1
row,Compound,normalised response [%]
1,CC/C(=C(\c1ccc(O)cc1)c1ccc(OCCN(C)C)cc1)c1ccccc1 [4-hydroxytamoxifen] (1000 nM),93.6
2,O=C(Nc1c[nH]nc1-c1nc2ccc(CN3CCOCC3)cc2[nH]1)NC1CC1 [AT9283] (100 nM),86.7
3,CC(=O)OC[C@H]1O[C@@H]([S-])[C@H](OC(C)=O)[C@@H](OC(C)=O)[C@@H]1OC(C)=O.CCP(CC)CC.[Au+] [Auranofin] (250 nM),109
4,O=S(=O)(c1cccc2cnccc12)N1CCCNCC1 [Fasudil] (5000 nM),95.3
5,Cc1cccc(-c2nn3c(c2-c2ccnc4ccc(C(N)=O)cc24)CCC3)n1 [Galunisertib] (100 nM),105
6,O=C(NC[C@H](O)CO)c1ccncc1Nc1ccc(I)cc1F [Pimasertib] (1000 nM),56.7
7,Cn1cc(CNCC2CCN(c3ncc(C(=O)NO)cn3)CC2)c2ccccc21 [Quisinostat] (100 nM),87.5

# Tested on: DU-4475
# Assay: as above
# Details: incubation time: 72 h
# Summary of the method: as §1
row,Compound,normalised response [%]
1,CC/C(=C(\c1ccc(O)cc1)c1ccc(OCCN(C)C)cc1)c1ccccc1 [4-hydroxytamoxifen] (1000 nM),105
2,O=C(Nc1c[nH]nc1-c1nc2ccc(CN3CCOCC3)cc2[nH]1)NC1CC1 [AT9283] (100 nM),97.6
3,CC(=O)OC[C@H]1O[C@@H]([S-])[C@H](OC(C)=O)[C@@H](OC(C)=O)[C@@H]1OC(C)=O.CCP(CC)CC.[Au+] [Auranofin] (250 nM),110
4,O=S(=O)(c1cccc2cnccc12)N1CCCNCC1 [Fasudil] (5000 nM),99
5,Cc1cccc(-c2nn3c(c2-c2ccnc4ccc(C(N)=O)cc24)CCC3)n1 [Galunisertib] (100 nM),107
6,O=C(NC[C@H](O)CO)c1ccncc1Nc1ccc(I)cc1F [Pimasertib] (1000 nM),62.6
7,Cn1cc(CNCC2CCN(c3ncc(C(=O)NO)cn3)CC2)c2ccccc21 [Quisinostat] (100 nM),82.1

# Tested on: MDA-MB-468
# Assay: as above
# Details: incubation time: 72 h
# Summary of the method: as §1
row,Compound,normalised response [%]
1,CC/C(=C(\c1ccc(O)cc1)c1ccc(OCCN(C)C)cc1)c1ccccc1 [4-hydroxytamoxifen] (1000 nM),128
2,O=C(Nc1c[nH]nc1-c1nc2ccc(CN3CCOCC3)cc2[nH]1)NC1CC1 [AT9283] (100 nM),70.7
3,CC(=O)OC[C@H]1O[C@@H]([S-])[C@H](OC(C)=O)[C@@H](OC(C)=O)[C@@H]1OC(C)=O.CCP(CC)CC.[Au+] [Auranofin] (250 nM),79.5
4,O=S(=O)(c1cccc2cnccc12)N1CCCNCC1 [Fasudil] (5000 nM),70.9
5,Cc1cccc(-c2nn3c(c2-c2ccnc4ccc(C(N)=O)cc24)CCC3)n1 [Galunisertib] (100 nM),170
6,O=C(NC[C@H](O)CO)c1ccncc1Nc1ccc(I)cc1F [Pimasertib] (1000 nM),150
7,Cn1cc(CNCC2CCN(c3ncc(C(=O)NO)cn3)CC2)c2ccccc21 [Quisinostat] (100 nM),43.3

# Tested on: CAL-148
# Assay: as above
# Details: incubation time: 72 h
# Summary of the method: as §1
row,Compound,normalised response [%]
1,CC/C(=C(\c1ccc(O)cc1)c1ccc(OCCN(C)C)cc1)c1ccccc1 [4-hydroxytamoxifen] (1000 nM),57.6
2,O=C(Nc1c[nH]nc1-c1nc2ccc(CN3CCOCC3)cc2[nH]1)NC1CC1 [AT9283] (100 nM),20.3
3,CC(=O)OC[C@H]1O[C@@H]([S-])[C@H](OC(C)=O)[C@@H](OC(C)=O)[C@@H]1OC(C)=O.CCP(CC)CC.[Au+] [Auranofin] (250 nM),107
4,O=S(=O)(c1cccc2cnccc12)N1CCCNCC1 [Fasudil] (5000 nM),98.2
5,Cc1cccc(-c2nn3c(c2-c2ccnc4ccc(C(N)=O)cc24)CCC3)n1 [Galunisertib] (100 nM),108
6,O=C(NC[C@H](O)CO)c1ccncc1Nc1ccc(I)cc1F [Pimasertib] (1000 nM),105
7,Cn1cc(CNCC2CCN(c3ncc(C(=O)NO)cn3)CC2)c2ccccc21 [Quisinostat] (100 nM),23.7

# Tested on: HCC1937
# Assay: as above
# Details: incubation time: 72 h
# Summary of the method: as §1
row,Compound,normalised response [%]
1,CC/C(=C(\c1ccc(O)cc1)c1ccc(OCCN(C)C)cc1)c1ccccc1 [4-hydroxytamoxifen] (1000 nM),86.6
2,O=C(Nc1c[nH]nc1-c1nc2ccc(CN3CCOCC3)cc2[nH]1)NC1CC1 [AT9283] (100 nM),85
3,CC(=O)OC[C@H]1O[C@@H]([S-])[C@H](OC(C)=O)[C@@H](OC(C)=O)[C@@H]1OC(C)=O.CCP(CC)CC.[Au+] [Auranofin] (250 nM),108
4,O=S(=O)(c1cccc2cnccc12)N1CCCNCC1 [Fasudil] (5000 nM),109
5,Cc1cccc(-c2nn3c(c2-c2ccnc4ccc(C(N)=O)cc24)CCC3)n1 [Galunisertib] (100 nM),93.8
6,O=C(NC[C@H](O)CO)c1ccncc1Nc1ccc(I)cc1F [Pimasertib] (1000 nM),109
7,Cn1cc(CNCC2CCN(c3ncc(C(=O)NO)cn3)CC2)c2ccccc21 [Quisinostat] (100 nM),80

# Tested on: HCC1143
# Assay: normalised response (% of control), CellTiter-Glo; higher = more viable cells (100 = DMSO, 0 = benzethonium chloride kill control)
# Details: incubation time: 72 h
# Summary of the method: as §1
row,Compound,normalised response [%]
1,CC/C(=C(\c1ccc(O)cc1)c1ccc(OCCN(C)C)cc1)c1ccccc1 [4-hydroxytamoxifen] (1000 nM),98.9
2,O=C(Nc1c[nH]nc1-c1nc2ccc(CN3CCOCC3)cc2[nH]1)NC1CC1 [AT9283] (100 nM),84.8
3,CC(=O)OC[C@H]1O[C@@H]([S-])[C@H](OC(C)=O)[C@@H](OC(C)=O)[C@@H]1OC(C)=O.CCP(CC)CC.[Au+] [Auranofin] (250 nM),91.8

# Source: the supplement of paper PMC4862054
